Data as given in ChEMBL document CHEMBL1126418, “Synthesis of chemically stable 9-substituted carbacyclin derivatives and their biological use” (Bioorg Med Chem Lett, 1992).

Tests used:
[1] = Evaluated for the relative potency to that of Iloprost.; format: functional
[2] = biological target: Prostacyclin receptor (Homo sapiens) (UniProt P43119); assay: Affinity for Prostaglandin I2 receptor; set-up: unit not given here
Homo sapiens [3] = organism: Homo sapiens; assay: The compound was tested for inhibition of blood platelet aggregation induced by ADP; format: functional, organism-based
Homo sapiens [4] = organism: Homo sapiens; assay: The compound was tested for inhibition of blood platelet aggregation induced by ADP; 0.5-2.5*10e-9; format: functional, organism-based
Homo sapiens [5] = organism: Homo sapiens; assay: The compound was tested for inhibition of blood platelet aggregation induced by ADP; 100-250*10e-9; format: functional, organism-based
Homo sapiens [6] = organism: Homo sapiens; assay: Compound was tested for inhibition of blood platelet aggregation induced by ADP; 0.2-0.5*10e-9; format: functional, organism-based

Prostacyclin receptor (Homo sapiens), sequence (P43119 whole entry): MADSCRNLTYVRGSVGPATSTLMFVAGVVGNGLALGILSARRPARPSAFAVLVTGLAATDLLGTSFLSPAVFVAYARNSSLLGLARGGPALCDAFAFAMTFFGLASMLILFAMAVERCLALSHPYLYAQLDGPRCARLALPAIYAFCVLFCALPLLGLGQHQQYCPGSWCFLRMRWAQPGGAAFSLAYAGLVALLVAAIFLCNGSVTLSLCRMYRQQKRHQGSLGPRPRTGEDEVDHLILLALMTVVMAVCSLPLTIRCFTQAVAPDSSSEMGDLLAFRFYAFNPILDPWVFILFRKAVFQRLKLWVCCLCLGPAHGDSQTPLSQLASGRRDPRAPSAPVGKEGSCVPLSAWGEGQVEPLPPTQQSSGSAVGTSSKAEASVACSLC

| Structure (SMILES) | KF [2] | IC50 (Homo sapiens [3]) [nM] | IC50 (Homo sapiens [4]) [nM] | IC50 (Homo sapiens [5]) [nM] | IC50 (Homo sapiens [6]) [nM] | Relative potency [1] |
| --- | --- | --- | --- | --- | --- | --- |
| CC#CCC(C)[C@H](O)/C=C/[C@H]1[C@H](O)C[C@]2(CCCCCO)C/C(=C\CCCC(=O)O)C[C@H]12 (some centres undefined) | 130 | 7000 |  |  |  | 0.0006 |
| CC#CCC(C)[C@H](O)/C=C/[C@H]1[C@H](O)C[C@]2(CCCCCN=[N+]=[N-])C/C(=C\CCCC(=O)O)C[C@H]12 (some centres undefined) | 29 | 500 |  |  |  | 0.0005 |
| CC#CCC(C)[C@H](O)/C=C/[C@H]1[C@H](O)C[C@]2(C#CCCCN=[N+]=[N-])C/C(=C/CCCC(=O)O)C[C@H]12 (some centres undefined) | 80 | 850 |  |  |  | 0.003 |
| CC#CCC(C)[C@H](O)/C=C/[C@@H]1[C@H]2CC(=CCCCC(=O)O)C[C@H]2C[C@H]1O (some centres undefined) [ILOPROST] | 11 | 4400 |  |  |  | 0.0001 |
| CC#CCC(C)[C@H](O)/C=C/[C@H]1[C@H](O)C[C@]2(CCCCCO)C/C(=C/CCCC(=O)O)C[C@H]12 (some centres undefined) | n.k. | 11000 |  |  |  | 4e-05 |
| CC#CCC(C)[C@H](O)/C=C/[C@H]1[C@H](O)C[C@]2(CCC#CCCCO)C/C(=C\CCCC(=O)O)C[C@H]12 (some centres undefined) | 180 | 400 |  |  |  | 0.002 |
| CC#CCC(C)[C@H](O)/C=C/[C@H]1[C@H](O)C[C@]2(C#CCCCBr)C/C(=C\CCCC(=O)O)C[C@H]12 (some centres undefined) | 3 |  | 0.5 |  |  | 1 |
| CC#CCC(C)[C@H](O)/C=C/[C@H]1[C@H](O)C[C@]2(C#CCCCBr)C/C(=C/CCCC(=O)O)C[C@H]12 (some centres undefined) |  |  |  | 100 |  | 0.001 |
| CC#CCC(C)[C@H](O)/C=C/[C@@H]1[C@H]2C/C(=C/CCCC(=O)O)C[C@H]2C[C@H]1O (stereo in doubt; 1) [ILOPROST] | 1 |  |  |  | 0.2 | 1 |
| CC#CCC(C)[C@H](O)/C=C/[C@H]1[C@H](O)C[C@]2(C#CCCC(=O)O)C/C(=C\CCCC(=O)O)C[C@H]12 (some centres undefined) | 200 | 2000 |  |  |  | 0.0002 |

Further molecules by falling IC50 (Homo sapiens [3]), results first:

| KF [2] | IC50 (Homo sapiens [3]) [nM] | IC50 (Homo sapiens [4]) [nM] | IC50 (Homo sapiens [5]) [nM] | IC50 (Homo sapiens [6]) [nM] | Structure (SMILES) | Relative potency [1] |
| --- | --- | --- | --- | --- | --- | --- |
| > 100 | 200 |  |  |  | CC#CCC(C)[C@H](O)/C=C/[C@H]1[C@H](O)C[C@]2(C#CCCCI)C/C(=C/CCCC(=O)O)C[C@H]12 (some centres undefined) | 0.001 |
| 300 | 200 |  |  |  | CC#CCC(C)[C@H](O)/C=C/[C@H]1[C@H](O)C[C@]2(C#CCCCO)C/C(=C/CCCC(=O)O)C[C@H]12 (some centres undefined) | 0.004 |
| 6 | 20 |  |  |  | CC#CCC(C)[C@H](O)/C=C/[C@H]1[C@H](O)C[C@]2(C#CCCCN=[N+]=[N-])C/C(=C\CCCC(=O)O)C[C@H]12 (some centres undefined) | 0.1 |
| 25 | 10 |  |  |  | CC#CCC(C)[C@H](O)/C=C/[C@H]1[C@H](O)C[C@]2(C#CCCCO)C/C(=C\CCCC(=O)O)C[C@H]12 (some centres undefined) | 0.2 |
| 5.6 | 5 |  |  |  | CC#CCC(C)[C@H](O)/C=C/[C@H]1[C@H](O)C[C@]2(C#CCCCI)C/C(=C\CCCC(=O)O)C[C@H]12 (some centres undefined) | 1 |
